# Source: US20120128580A1, “PRESELECTION OF SUBJECTS FOR THERAPEUTIC TREATMENT WITH ELESCLOMOL BASED ON HYPOXIC STATUS” (SYNTA PHARMACEUTICALS CORP., priority 2010, published 2012)
# Columns and labels:
# Format in all cases: in vivo, human
# cancer = assay: Chart review of treatment outcomes by level of hypoxia
# Method: A chart review analysis is performed to determine the efficacy of elesclomol for the treatment of cancer based on the level of hypoxia of the tumor based on markers assessed during the treatment of the subjects. […] Subjects who were treated with elesclomol for whom no levels of hypoxic markers were determined can be used as an unstratified control group to understand the efficacy of elesclomol on a treatment population not selected based on the level of hypoxia in the subject/tumor. Alternatively, the population analyzed in the study for which hypoxia levels (e.g., LDH marker levels) can be compared to historical control samples in which an unstratified population was analyzed for response to elesclomol. […] Preferably, the same marker(s) of hypoxia is measured in each of the subjects, e.g., at least one isoform or subunit of lactate dehydrogenase (LDH) or hypoxia inducible factor (HIF); at least one pro-angiogenic form of vascular endothelial growth factor (VEGF), phosphorylated VEGF receptor (pKDR) 1, 2, or 3; neurolipin 1 (NRP-1), pyruvate dehydrokinase (PDH-K), and ornithine decarboxylase (ODC). […]
# [1] = tested on: relapsed or refractory acute myeloid leukemia (AML); assay: Trial of elesclomol sodium in relapsed or refractory AML with low LDH; settings: baseline serum LDH ≤0.8 ULN, elesclomol sodium once-weekly, starting dose 200 mg/m^2
# Method: Subjects are identified as having one of relapsed or refractory acute myeloid leukemia (AML). A subject is selected as being candidate for treatment with elesclomol based on appropriate inclusion or exclusion criteria. Routine assessments are made prior to treatment to characterize the disease state of the subject including, but not limited to, imaging studies, hematological studies, and physical examination. Additionally, coded serum sample from the subject is tested to determine the LDH level.
# This trial is expected to be sufficiently powered with the enrollment of 36 patients with relapsed or refractory AML and total baseline serum LDH level less-than or equal to 0.8 upper limit of normal (ULN). Patients are treated with elesclomol sodium on a once-weekly schedule at a starting dose of 200 mg/m^2, with dose escalation planned based on safety and tolerability. The primary endpoints are to characterize the safety and tolerability of elesclomol sodium and to determine the pharmacokinetics of elesclomol and its metabolites in this patient population. Secondary endpoints include assessing the activity of elesclomol as a monotherapy in the treatment of AML.
# [2] = tested on: non-small cell lung carcinoma (NSCLC); assay: Phase II study, elesclomol with paclitaxel and carboplatin versus paclitaxel and carboplatin alone; settings: previously untreated NSCLC Stage IIIB or IV, i.v. every three weeks for six cycles
# Method: For example, a Phase II study was performed to test elesclomol in combination with paclitaxel and carboplatin, as compared to paclitaxel and carboplatin alone, in 86 subjects with previously untreated non-small cell lung carcinoma (NSCLC) and non-resectable, locally advanced, or metastatic disease (Stage IIIB or IV) were randomized 1:1 into treatment groups for treatment with carboplatnin plus elesclomol (CP+E) or carboplatnin alone (CP). Subjects were dosed intravenously with 200 mg/m^2 of paclitaxel and AUC=6 of carboplatnin either with or without 266 mg/m^2 of elesclomol every three weeks for six cycles, likely resulting in complete clearance of elesclomol between doses.
structure (smiles),measurement,setting,value
"CN(NC(=O)CC(=O)NN(C)C(=S)c1ccccc1)C(=S)c1ccccc1 [Elesclomol, N-malonyl-bis(N′-methyl-N′-thiobenzoylhydrazide)]",response of subjects with a low level of hypoxia compared to a high level of hypoxia,cancer,better response
same,response of subjects with low levels of hypoxia versus historical control populations,[1],respond better
same,Median Progression Free Survival,[2]; High LDH,2.8 months
same,Median Progression Free Survival,[2]; Low LDH,4.6 months
